Source: patent US5599806A, “Hydrazino and hydroxyamino-14-β-hydroxyandrostane derivatives active on the cardiovascular system processes for their preparation and pharmaceutical compositions containing same” (Sigma-Tau Industrie Farmaceutiche Riunite S.p.A., priority 1994, dated 1997)
Where two headings read alike, the source gives them in different places.

Tests used:
[1] = biological target: T1, purified Na^+, K^+ -ATPase (Canis lupus familiaris, UniProt P50997); assay: inhibition of the activity of the purified Na^+, K^+ -ATPase (hydrolysis of ^32 P-ATP); type: biochemical
T1 construct: from tissue
Text: To test the affinity for the receptor site of the Na^+, K^+ -ATPase and the inhibition of the activity of the enzyme, the following tests were used:
b) inhibition of the activity of the purified Na^+, K^+ -ATPase measured as % of hydrolysis of ^32 P-ATP in the presence and in the absence of the tested compound (Doucet A. et al., Am. J. Physiol., 1986, 251, F851)

[2] = biological target: Na^+, K^+ -ATPase receptor; assay: displacement of the specific ^3 H-ouabain binding from the Na^+, K^+ -ATPase receptor; details: ^3 H-ouabain displacement, purified Na^+
Text: a) displacement of the specific ^3 H-ouabain binding from the Na^+, K^+ -ATPase receptor purified according to Jorghensen (Jorghensen P., BBA, 1974, 356, 36) and Erdmann (Erdmann E. et al., Arzneim. Forsh., 1984, 34, 1314);

[3] = tested on: spontaneous hypertensive rats (MHS); assay: effect of 5 week-treatment in spontaneous hypertensive rats (MHS) on the development of hypertension (SBP and HR, tail cuff method); type: in vivo, rat; details: 5 weeks, in Methocel 0.5% w/v; for SBP: controls 170 +/- 5.5; for HR: controls 378 +/- 12.0
Procedure: Systolic blood pressure (SBP) and hear rate (HR) were measured, by the tail cuff method, in young prehypertensive male rats (MHS or SHR) strains before the development of hypertension (4 weeks of age) for recording the basal values of SBP. Groups of 7 rats were formed and subdivided in control and treated groups.
The compound, suspended in Methocel 0.5% (w/v), was orally given daily for at least 5 weeks to the treated groups. The control group received only Methocel.
SBP and HR were measured weekly 6 and 24 hrs after treatment. After 5 weeks of treatment, when hypertension was fully developed in the control group (9 weeks of age), washout was started for at least one week, to verify whether the treatment maintained blood pressure low or reestablished the basal values.
(Takeda K. et al., Japan J. Pharmacol., 1979, 29, 171; Takeda K. et al. Japan J. Pharmacol., 1982, 32, 283; Richer C. et al. Eur. J. Pharmacol, 1978, 47,393).

[4] = hydrolysis of ^32 P-ATP, purified Na^+, K^+ -ATPase, read-out: Inhibitory Activity (-log IC50) (converted)

For `C[C@]12CC[C@H](O)C[C@H]1CC[C@@H]1[C@@H]2CC[C@]2(C)[C@@H](CNOCCNC(=N)N)CC[C@]12O` [Comp. I-aq, 17β-(2-Guanidinoethoxyamino)methyl-5β-androstane-3β,14β-diol], the IC50 [1, 4] was 39.8 µM and the “Binding ^3 H-Ouab. Displacement (-log IC50)” value [2] was 6.0.

With `CN(C)CCONCC=C[C@H]1CC[C@]2(O)[C@@H]3CC[C@@H]4C[C@@H](O)CC[C@]4(C)[C@H]3CC[C@]12C` [Comp. I-au, 17β-[3-(2-Dimethylaminoethoxyamino)-1-propenyl]-5β-androstane-3β,14β-diol] the IC50 [1, 4] was 39.8 µM and the “Binding ^3 H-Ouab. Displacement (-log IC50)” value [2] was 5.9.

`C[C@]12CC[C@H](O)C[C@H]1CC[C@@H]1[C@@H]2CC[C@]2(C)[C@@H](C=CCNOCCN)CC[C@]12O` [Comp. I-at, 17β-[3-(2-Aminoethoxyamino)-1-propenyl]-5β-androstane-3β,14β-diol] was tested, and the IC50 [1] was 10 µM and the “Binding ^3 H-Ouab. Displacement (-log IC50)” value [2] was 6.7.

For `C[C@]12CC[C@H](O)C[C@H]1CC[C@@H]1[C@@H]2CC[C@]2(C)[C@@H](C=CCNNC(=N)N)CC[C@]12O` [Comp. I-as, 17β-{3-[2-(Amidino)]hydrazino-1-propenyl}-5β-androstane-3β,14β-diol], the IC50 [1] was 31.6 µM and the “Binding ^3 H-Ouab. Displacement (-log IC50)” value [2] was 6.0.

`CN(C)CCCCONC[C@H]1CC[C@]2(O)[C@@H]3CC[C@@H]4C[C@@H](O)CC[C@]4(C)[C@H]3CC[C@]12C` [Comp. I-ao, 17β-(4-Dimethylaminobutoxyamino)methyl-5β-androstane-3β,14β-diol] was tested, and the IC50 [1] was 79.4 µM.

In the case of `C[C@]12CC[C@H](O)C[C@H]1CC[C@@H]1[C@@H]2CC[C@]2(C)[C@@H](CNO)CC[C@]12O` [Comp. I-ah, 17β-Hydroxyaminomethyl-5β-androstane-3β,14β-diol], the IC50 [1] is reported as 79.4 µM and the “Binding ^3 H-Ouab. Displacement (-log IC50)” value [2] is reported as 5.0.

With `CN(C)CCCONC[C@H]1CC[C@]2(O)[C@@H]3CC[C@@H]4C[C@@H](O)CC[C@]4(C)[C@H]3CC[C@]12C` [Comp. I-an, 17β-(3-Dimethylaminopropoxyamino)methyl-5β-androstane-3β,14β-diol] the IC50 [1] was 63.1 µM.

For `CN(C)CCON(C)C[C@H]1CC[C@]2(O)[C@@H]3CC[C@@H]4C[C@@H](O)CC[C@]4(C)[C@H]3CC[C@]12C` [Comp. I-ap, 17β-[N-Methyl-N-(2-dimethylaminoethoxy)amino]methyl-5β-androstane-3β,14β-diol], the IC50 [1, 4] was 100 µM and the “Binding ^3 H-Ouab. Displacement (-log IC50)” value [2] was 5.0.

With `C[C@]12CC[C@H](O)C[C@H]1CC[C@@H]1[C@@H]2CC[C@]2(C)[C@@H](CNNC(=N)Nc3ccccc3)CC[C@]12O` [Comp. I-af, 17β-[2-(N-Phenylamidino)]hydrazinomethyl-5β-androstane-3β,14β-diol] the IC50 [1] was 63.1 µM and the “Binding ^3 H-Ouab. Displacement (-log IC50)” value [2] was 5.0.

In the case of `C[C@]12CC[C@H](O)C[C@H]1CC[C@@H]1[C@@H]2CC[C@]2(C)[C@@H](CNOCCCCN)CC[C@]12O` [Comp. I-al, 17β-(4-Aminobutoxyamino)methyl-5β-androstane-3β,14β-diol], the “Binding ^3 H-Ouab. Displacement (-log IC50)” value [2] is reported as 6.2.

In the case of `CC(=C[C@H]1CC[C@]2(O)[C@@H]3CC[C@@H]4C[C@@H](O)CC[C@]4(C)[C@H]3CC[C@]12C)CNOCCN(C)C` [Comp. I-av, 17β-[3-(2-Dimethylaminoethoxyamino)-2-methyl-1-propenyl]-5β-androstane-3β,14β-diol], the IC50 [1] is reported as 63.1 µM and the “Binding ^3 H-Ouab. Displacement (-log IC50)” value [2] is reported as 5.7.

With `C[C@]12CC[C@H](O)C[C@H]1CC[C@@H]1[C@@H]2CC[C@]2(C)[C@@H](CNOCCCN)CC[C@]12O` [Comp. I-ak, 17β-(3-Aminopropoxyamino)methyl-5β-androstane-3β,14β-diol] the IC50 [1] was 2.51 µM and the “Binding ^3 H-Ouab. Displacement (-log IC50)” value [2] was 6.9.

`CN(C)CCONC[C@H]1CC[C@]2(O)[C@@H]3CC[C@@H]4C[C@@H](OCCCN5CCCC5)CC[C@]4(C)[C@H]3CC[C@]12C` [Comp. I-be, 3β-(3-(1-Pyrrolidinyl)propoxy)-17β-(2-dimethylaminoethoxyamino)methyl-5β-androstane-3β,14β-diol] was tested, and the “Binding ^3 H-Ouab. Displacement (-log IC50)” value [2] was 6.0.

In the case of `CN(C)CCNC(=N)NNC[C@H]1CC[C@]2(O)[C@@H]3CC[C@@H]4C[C@@H](O)CC[C@]4(C)[C@H]3CC[C@]12C` [Comp. I-ae, 17β-{2-[N-(2-Dimethylaminoethyl)amidino]}hydrazinomethyl-5β-androstane-3β,14β-diol], the IC50 [1] is reported as 31.6 µM and the “Binding ^3 H-Ouab. Displacement (-log IC50)” value [2] is reported as 5.4.

With `CN(C)CCONC[C@H]1CC[C@]2(O)[C@@H]3CC[C@@H]4C[C@@H](O)CC[C@]4(C)[C@H]3CC[C@]12C` [Comp. I-am, 17β-(2-Dimethylaminoethoxyamino)methyl-5β-androstane-3β,14β-diol] the IC50 [1, 4] was 50.1 µM, the “Binding ^3 H-Ouab. Displacement (-log IC50)” value [2] was 6.1 and the SBP ([3]; 1 mg/Kg/os daily) was 152 +/- 5.3 mm Hg. For the same compound, the HR ([3]; 1 mg/Kg/os daily) was 365 +/- 10.1 beats/min, the SBP ([3]; 10 mg/Kg/os daily) was 149 +/- 4.5 mm Hg and the HR ([3]; 10 mg/Kg/os daily) was 370 +/- 14.7 beats/min.

In the case of `C[C@]12CC[C@H](O)C[C@H]1CC[C@@H]1[C@@H]2CC[C@]2(C)[C@@H](CNNC3=NCCN3)CC[C@]12O` [Comp. I-ab, 17β-[2-(2-Imidazolin-2-yl)]hydrazinomethyl-5β-androstane-3β,14β-diol], the IC50 [1, 4] is reported as 3.16 µM and the “Binding ^3 H-Ouab. Displacement (-log IC50)” value [2] is reported as 6.6.

For `CN(C)CCONC[C@H]1CC[C@]2(O)[C@@H]3CC[C@@H]4C[C@@H](OCCN5CCCC5)CC[C@]4(C)[C@H]3CC[C@]12C` [Comp. I-bd, 3β-[2-(1-Pyrrolidinyl)ethoxy]-17β-(2-dimethylaminoethoxyamino)methyl-5β-androstane-3β,14β-diol], the IC50 [1] was 31.6 µM and the “Binding ^3 H-Ouab. Displacement (-log IC50)” value [2] was 6.2.

For `C[C@]12CC[C@H](O)C[C@H]1CC[C@@H]1[C@@H]2CC[C@]2(C)[C@@H](CNNC(=N)N)CC[C@]12O` [Comp. I-aa, 17β-[2-(Amidino)]hydrazinomethyl-5β-androstane-3β,14β-diol], the “Binding ^3 H-Ouab. Displacement (-log IC50)” value [2] was 6.9.

In the case of `C[C@]12CC[C@H](O)C[C@H]1CC[C@@H]1[C@@H]2CC[C@]2(C)[C@@H](CNNC3=NCCCN3)CC[C@]12O` [Comp. I-ad, 17β-[2-(1,4,5,6-Tetrahydro-2-pyrimidinyl)]hydrazinomethyl-5β-androstane-3β,14β-diol], the IC50 [1] is reported as 3.98 µM and the “Binding ^3 H-Ouab. Displacement (-log IC50)” value [2] is reported as 6.5.

In the case of `CC(NOCCN(C)C)[C@H]1CC[C@]2(O)[C@@H]3CC[C@@H]4C[C@@H](O)CC[C@]4(C)[C@H]3CC[C@]12C` (stereo partly drawn) [Comp. I-ar, 20β-(2-Dimethylaminoethoxyamino)-5β-pregnane-3β,14β-diol], the IC50 [1] is reported as 63.1 µM and the “Binding ^3 H-Ouab. Displacement (-log IC50)” value [2] is reported as 5.7.

`CONC[C@H]1CC[C@]2(O)[C@@H]3CC[C@@H]4C[C@@H](O)CC[C@]4(C)[C@H]3CC[C@]12C` [Comp. I-ai, 17β-Methoxyaminomethyl-5β-androstane-3β,14β-diol] was tested, and the “Binding ^3 H-Ouab. Displacement (-log IC50)” value [2] was 5.1.

`CN1CCN=C1NNC[C@H]1CC[C@]2(O)[C@@H]3CC[C@@H]4C[C@@H](O)CC[C@]4(C)[C@H]3CC[C@]12C` [Comp. I-ac, 17β-[2-(1-Methyl-2-imidazolin-2-yl)]hydrazinomethyl-5β-androstane-3β,14β-diol] was tested, and the IC50 [1] was 10 µM and the “Binding ^3 H-Ouab. Displacement (-log IC50)” value [2] was 6.0.

In the case of `CN(C)CCONC[C@@]1(O)CC[C@]2(O)[C@@H]3CC[C@@H]4C[C@@H](O)CC[C@]4(C)[C@H]3CC[C@]12C` [Comp. I-ba, 17β-(2-Dimethylaminoethoxyamino)methyl-5β-androstane-3β,14β,17α-diol], the IC50 [1] is reported as 100 µM and the “Binding ^3 H-Ouab. Displacement (-log IC50)” value [2] is reported as 5.2.

With `CN(C)CCONC[C@H]1CC[C@]2(O)[C@@H]3CC[C@@H]4C[C@@H](OCCN)CC[C@]4(C)[C@H]3CC[C@]12C` [Comp. I-bc, 3β-(2-Aminoethoxy)-17β-(2-dimethylaminoethoxyamino)methyl-5β-androstane-14β-ol] the IC50 [1, 4] was 39.8 µM and the “Binding ^3 H-Ouab. Displacement (-log IC50)” value [2] was 6.1.

`CN(C)CCONCCC[C@H]1CC[C@]2(O)[C@@H]3CC[C@@H]4C[C@@H](O)CC[C@]4(C)[C@H]3CC[C@]12C` [Comp. I-ay, 17β-[3-(2-Dimethylaminoethoxyamino)propyl]-5β-androstane-3β,14β-diol] was tested, and the IC50 [1, 4] was 39.8 µM and the “Binding ^3 H-Ouab. Displacement (-log IC50)” value [2] was 5.8.

For `CN(C)CCONCC[C@H]1CC[C@]2(O)[C@@H]3CC[C@@H]4C[C@@H](O)CC[C@]4(C)[C@H]3CC[C@]12C` [Comp. I-ax, 17β-[2-(2-Dimethylaminoethoxyamino)ethyl]-5β-androstane-3β,14β-diol], the IC50 [1, 4] was 39.8 µM and the “Binding ^3 H-Ouab. Displacement (-log IC50)” value [2] was 5.7.

`CC(NNC(=N)N)[C@H]1CC[C@]2(O)[C@@H]3CC[C@@H]4C[C@@H](O)CC[C@]4(C)[C@H]3CC[C@]12C` (stereo partly drawn) [Comp. I-ag, 20-(2-Amidino)hydrazino-5β-pregnane-3β,14β-diol] was tested, and the IC50 [1] was 6.31 µM and the “Binding ^3 H-Ouab. Displacement (-log IC50)” value [2] was 6.5.
